# Measurements reported in paper PMC12391994, “Synthesis of a fac-Tricarbonylrhenium(I) Complex with Pyrithione, Its Physicochemical Characterization, and Assessment of Biological Effects” (ACS Omega, 2025).
# Marks after values point to notes of the source that are not given here.
# Assays:
# [1] = molecular target: T1, cathepsin B (exopeptidase activity) (Homo sapiens, UniProt P07858); test: Determination of inhibition constants, cathepsin B exopeptidase activity; assay type: biochemical; conditions: substrate Abz-GIVRAK(Dnp)-OH, mixed inhibition
# T1 construct: made in house; host or cells: E. coli
# Experimental: Human recombinant cathepsin B was expressed in E. coli, recombinant cathepsin V was expressed in Pichia pastoris, and human recombinant cathepsin L was expressed in E. coli, as reported. − For the determination of cathepsin B endopeptidase and exopeptidase activities, 100 mM phosphate buffer (pH 6.0) and 60 mM acetate buffer (pH 5.0) were used, respectively, and for the determination of cathepsin V and L activities, 100 mM acetate buffer (pH 5.5) was used. All buffers contained 0.1% PEG 8000 (Sigma-Aldrich, St. Louis, MO), 5 mM cysteine, and 1.5 mM EDTA. Prior to the assay, the enzymes were activated in the assay buffer for 5 min at 37 °C.
# Inhibition constants were calculated from the reaction velocities measured at three substrate concentrations (the substrate Z-Arg-Arg-AMC at concentrations of 60, 180, and 360 μM and the substrate Abz-Gly-Ile-Val-Arg-Ala-Lys(Dnp)-OH at concentrations of 1, 3, and 6 μM to assess cathepsin B endopeptidase and exopeptidase activity, respectively) in the presence of seven concentrations of the inhibitor (0, 20, 40, 60, 80, 100, and 200 μM). […] Formation of fluorescent degradation products was monitored as described above. […]
# MCF-10A neoT cells = test: MTS cell viability assay; conditions: 24 h, concentrations used to monitor ECM degradation
# Experimental: The cells were seeded at 6 × 10^4 cells/well into a 96-well microplate and incubated overnight for attachment. The cells were then treated with the inhibitor (at 1, 2.5, or 5 μM) or DMSO (0.1%) in 100 μL for 24 h. After incubation, 10 μL of the reagent MTS was added to the wells, and the absorbance of formazan was measured at 492 nm on a Tecan Infinite M1000 instrument (Mannedorf, Switzerland). Cell viability (%) was expressed as the ratio between absorbance in the presence of the compounds and that in the presence of DMSO. All assays were performed in quadruplicate and repeated twice.
# HeLa cells = test: MTT cytotoxicity assay, HeLa; assay type: cell-based, human; conditions: 72 h incubation
# Experimental: (§1) Its cytotoxicity was determined in the human HeLa cervical cancer cell line, the drug-sensitive Colo205 and its resistant counterpart, the ABCB1 expressing Colo320 colon adenocarcinoma cancer cell lines, using the colorimetric 3-(4,5-dimethylthiazol-2-yl)-2,5-diphenyltetrazolium bromide (MTT) test. To investigate the selectivity toward cancer cells, the noncancerous fibroblast CCD-19Lu cell line was included.
# (§2) The tested compound was dissolved in DMSO to prepare a 5 mM stock solution, which was diluted in complete culture medium, to study the effect of compounds on cell growth of human colonic adenocarcinoma cell lines. Doxorubicin was used as the positive control. The cells were treated with a trypsin-versene (EDTA) solution. Cells were adjusted to a density of 1 × 10^4 cells in 100 μL of the appropriate culture medium and were added to each well, with the exception of the medium control wells. Except for the semiadherent Colo205 and Colo320 cell lines, the other adherent cell lines were seeded 24 h prior to the assay. Then, stock solutions were diluted in the appropriate culture medium, and 2-fold serial dilutions of compounds were prepared in 100 μL of the medium, horizontally. […] Cell growth was determined by measuring the optical density (OD) at 540/630 nm with a Multiscan EX ELISA reader (Thermo Labsystems, Cheshire, WA). […]
# [2] = Stability/transformation in aqueous solution (1H NMR, UV-vis, CZE); assay type: physicochemical
# Experimental: A Bruker Avance III HD Ascend 500 Plus instrument (Billerica, MA) was used for solution NMR studies. Spectra were recorded with a WATERGATE water suppression pulse scheme in the presence of 10% (v/v) D2O in most cases. DSS internal standard was added to samples to obtain reference peaks.
# Colo205 cells = test: MTT cytotoxicity assay, Colo205; assay type: cell-based, human; conditions: 72 h incubation, MTT; read-out: IC50 Colo205
# Experimental: as §1
# Drug-sensitive Colo205 (ATCC-CCL-222) and ABCB1 (MDR1)-LRP expressing and doxorubicin-resistant Colo320/MDR-LRP (ATCC-CCL-220.1) human colonic adenocarcinoma cell lines were purchased from LGC Promochem (Teddington, U.K.). The cells were cultured in RPMI 1640 medium supplemented with 10% heat-inactivated fetal bovine serum, 2 mM L-glutamine, 1 mM Na-pyruvate, and 10 mM HEPES.
# as §2, with “horizontally. The final volume of the wells containing compounds and cells was 200 μL. The plates were incubated at 37 °C for 72 h; at the end of the incubation period, 20 μL of MTT solution (from a stock solution of 5 mg/mL) was added to each well.” for “horizontally.”
# [3] = test system: S. aureus MRSA ATCC 43300; test: Antibacterial MIC assay, S. aureus MRSA ATCC 43300; assay type: cell-based, Staphylococcus aureus; conditions: 18 h, visual inspection
# Experimental: The antibacterial effect of the complex was tested against the Gram-negative strain Escherichia coli (E. coli) ATCC 25922, the Gram-positive reference strain Staphylococcus aureus (S. aureus) ATCC 25923, and the methicillin-resistant S. aureus MRSA ATCC 43300 strain. MRSA strains are responsible for several difficult-to-treat hospital-acquired infections.
# The following bacterial strains were used in our experiments: Gram-positive S. aureus American Type Culture Collection (ATCC) 25923 as the methicillin-susceptible reference bacterial strain; methicillin-resistant S. aureus ATCC 43300 (MRSA) strain; E. coli ATCC 25922 as a Gram-negative bacterial strain.
# MIC values of the complexes were determined in 96-well plates based on the Clinical and Laboratory Standard Institute guidelines (CLSI guidelines). The stock solutions of the compound (dissolved in DMSO at 5 mM concentration) were diluted in 100 μL of Mueller Hinton Broth. Then, 10^–4 dilution of an overnight bacterial culture in 100 μL of medium was added to each well, with the exception of the medium control wells.
structure (smiles),measurement,setting,value
"N#Cc1ccccc1.[C-]#[O+].[C-]#[O+].[C-]#[O+].[O-]n1ccccc1=S.[Re+] [complex 4, fac-[Re(CO)3(pth)(benzonitrile)]]","Ki′ (dissociation of enzyme–substrate–inhibitor complex), exopeptidase activity",[1],67.0 ± 8.3 ^d μM
same,Ki,"[1]; read-out: Ki (dissociation of enzyme–inhibitor complex), exopeptidase activity",165 ± 76 µM
same,maximum nontoxic concentration,Vero cells,6.25 µM
same,effect on viability of MCF-10A neoT cells,MCF-10A neoT cells,did not impair the viability
same,IC50,HeLa cells,7.96 ± 0.98 µM
same,time for complete release of the benzonitrile ligand,"[2]; water pH 6.8 and pH 7.4 (phosphate or HEPES buffer), kept in the dark, 1H NMR",≤ 1 h
same,dissociation of the pyrithione ligand,"[2]; water pH 6.8 and pH 7.4 buffers, dark, 48 h",did not occur within 48 h
same,IC50,Colo205 cells,9.22 ± 0.53 µM
same,MIC S. aureus MRSA ATCC 43300,[3],12.5 µM
